How the values were obtained:
[1] = target: Kappa-type opioid receptor (Homo sapiens, UniProt P41145)
Endothelin-1 receptor = target: T1, Endothelin-1 receptor (Homo sapiens, UniProt P25101)
T1 sequence (P25101 whole entry): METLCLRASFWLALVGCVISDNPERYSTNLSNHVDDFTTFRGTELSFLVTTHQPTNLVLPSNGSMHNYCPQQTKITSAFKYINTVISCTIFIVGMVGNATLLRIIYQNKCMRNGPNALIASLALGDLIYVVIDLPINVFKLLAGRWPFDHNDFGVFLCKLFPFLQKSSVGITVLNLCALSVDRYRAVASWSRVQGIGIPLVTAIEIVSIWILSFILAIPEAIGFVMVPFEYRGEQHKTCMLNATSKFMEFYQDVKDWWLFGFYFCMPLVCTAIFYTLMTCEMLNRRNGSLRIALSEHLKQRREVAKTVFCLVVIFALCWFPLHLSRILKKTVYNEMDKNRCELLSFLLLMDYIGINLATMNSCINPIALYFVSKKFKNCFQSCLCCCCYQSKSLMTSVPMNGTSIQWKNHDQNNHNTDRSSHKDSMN

[2] = target: T2, Gastrin/cholecystokinin type B receptor (Homo sapiens, UniProt P32239)
T2 sequence (P32239 whole entry): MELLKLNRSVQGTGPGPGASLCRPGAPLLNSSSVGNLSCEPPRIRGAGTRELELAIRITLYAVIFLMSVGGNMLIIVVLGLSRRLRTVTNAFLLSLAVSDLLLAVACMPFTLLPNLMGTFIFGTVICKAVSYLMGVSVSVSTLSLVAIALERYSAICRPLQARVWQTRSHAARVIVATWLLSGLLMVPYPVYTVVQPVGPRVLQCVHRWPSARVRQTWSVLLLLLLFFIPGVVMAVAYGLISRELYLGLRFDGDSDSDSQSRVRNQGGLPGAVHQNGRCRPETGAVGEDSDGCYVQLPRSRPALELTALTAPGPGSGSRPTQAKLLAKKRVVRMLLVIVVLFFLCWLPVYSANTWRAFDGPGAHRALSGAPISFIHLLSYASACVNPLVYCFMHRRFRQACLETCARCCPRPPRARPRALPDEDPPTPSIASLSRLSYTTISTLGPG

[3] = target: Gamma-aminobutyric acid receptor subunit alpha-1 (Rattus norvegicus, UniProt P62813)
[4] = target: T3, 5-hydroxytryptamine receptor 2B (Homo sapiens, UniProt P41595); format: functional, cell-based
Thromboxane A2 receptor = target: T4, Thromboxane A2 receptor (Homo sapiens, UniProt P21731); format: functional, cell-based
T4 sequence (P21731 whole entry): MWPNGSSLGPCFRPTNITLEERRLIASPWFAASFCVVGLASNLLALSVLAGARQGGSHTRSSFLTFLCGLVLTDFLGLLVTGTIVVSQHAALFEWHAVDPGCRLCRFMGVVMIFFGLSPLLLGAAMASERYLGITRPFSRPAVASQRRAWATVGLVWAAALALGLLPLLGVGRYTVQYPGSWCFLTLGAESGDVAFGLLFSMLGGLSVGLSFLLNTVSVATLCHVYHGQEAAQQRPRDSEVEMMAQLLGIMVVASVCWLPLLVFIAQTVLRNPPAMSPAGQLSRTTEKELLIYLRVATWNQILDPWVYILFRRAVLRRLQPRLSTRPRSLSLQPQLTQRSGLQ

[5] = target: T5, Alpha-1A adrenergic receptor (Homo sapiens, UniProt P35348); format: functional, cell-based
T5 sequence (P35348 whole entry): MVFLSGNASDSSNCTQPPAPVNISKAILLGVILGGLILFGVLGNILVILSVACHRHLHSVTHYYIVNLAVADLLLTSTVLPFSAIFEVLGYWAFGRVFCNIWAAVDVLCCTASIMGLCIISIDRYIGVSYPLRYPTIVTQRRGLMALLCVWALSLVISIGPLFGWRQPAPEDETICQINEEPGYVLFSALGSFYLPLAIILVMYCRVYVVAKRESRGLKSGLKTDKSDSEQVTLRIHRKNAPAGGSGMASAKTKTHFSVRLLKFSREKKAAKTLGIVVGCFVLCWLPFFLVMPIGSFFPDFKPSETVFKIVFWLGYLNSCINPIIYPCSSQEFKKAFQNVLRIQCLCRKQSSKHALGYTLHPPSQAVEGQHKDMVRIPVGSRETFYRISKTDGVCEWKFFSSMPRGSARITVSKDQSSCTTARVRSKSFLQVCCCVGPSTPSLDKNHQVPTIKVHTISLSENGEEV

[6] = target: T5, Alpha-1A adrenergic receptor; format: functional, cell-based; remark: listed apart in the source
Prothrombin = Prothrombin (Homo sapiens, UniProt P00734); format: functional
[7] = target: Voltage-dependent L-type calcium channel subunit alpha-1C (Rattus norvegicus, UniProt P22002); format: functional
Acetylcholinesterase = Acetylcholinesterase (Homo sapiens, UniProt P22303); format: functional
Mu-type opioid receptor = Mu-type opioid receptor (Homo sapiens, UniProt P35372)
[8] = target: T3, 5-hydroxytryptamine receptor 2B; format: functional, cell-based; remark: listed apart in the source
Cannabinoid receptor 1 = Cannabinoid receptor 1 (Homo sapiens, UniProt P21554)
Further: assay procedure not described here.

Chain of Acetylcholinesterase (P22303 whole entry): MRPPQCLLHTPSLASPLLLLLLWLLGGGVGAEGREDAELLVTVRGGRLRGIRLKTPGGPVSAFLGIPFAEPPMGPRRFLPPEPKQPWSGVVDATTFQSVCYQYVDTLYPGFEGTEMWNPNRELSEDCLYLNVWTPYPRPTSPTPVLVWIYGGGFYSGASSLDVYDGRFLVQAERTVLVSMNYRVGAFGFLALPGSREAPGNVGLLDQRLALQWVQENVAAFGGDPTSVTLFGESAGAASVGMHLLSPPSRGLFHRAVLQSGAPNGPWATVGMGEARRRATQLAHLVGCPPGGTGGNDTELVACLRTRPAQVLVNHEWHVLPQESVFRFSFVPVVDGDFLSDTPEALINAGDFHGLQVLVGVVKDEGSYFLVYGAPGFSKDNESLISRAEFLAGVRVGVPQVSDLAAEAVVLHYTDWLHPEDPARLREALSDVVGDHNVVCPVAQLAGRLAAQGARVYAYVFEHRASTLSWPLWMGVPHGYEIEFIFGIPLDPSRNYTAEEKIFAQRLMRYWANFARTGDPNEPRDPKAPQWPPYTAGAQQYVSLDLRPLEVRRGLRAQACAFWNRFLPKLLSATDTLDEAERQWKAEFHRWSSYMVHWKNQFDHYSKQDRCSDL
Chain of Gamma-aminobutyric acid receptor subunit alpha-1 (P62813 whole entry): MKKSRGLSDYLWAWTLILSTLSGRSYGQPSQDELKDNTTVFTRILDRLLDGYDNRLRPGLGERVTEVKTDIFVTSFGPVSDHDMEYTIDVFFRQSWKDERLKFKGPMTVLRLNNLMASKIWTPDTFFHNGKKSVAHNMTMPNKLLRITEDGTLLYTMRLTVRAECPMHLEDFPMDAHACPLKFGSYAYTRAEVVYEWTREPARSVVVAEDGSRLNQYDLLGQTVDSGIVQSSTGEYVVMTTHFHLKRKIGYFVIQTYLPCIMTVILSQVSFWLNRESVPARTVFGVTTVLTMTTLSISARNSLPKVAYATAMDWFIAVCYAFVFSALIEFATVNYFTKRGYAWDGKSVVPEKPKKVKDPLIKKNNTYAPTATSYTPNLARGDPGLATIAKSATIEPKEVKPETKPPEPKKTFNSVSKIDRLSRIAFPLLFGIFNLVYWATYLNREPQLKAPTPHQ
Chain of Kappa-type opioid receptor (P41145 whole entry): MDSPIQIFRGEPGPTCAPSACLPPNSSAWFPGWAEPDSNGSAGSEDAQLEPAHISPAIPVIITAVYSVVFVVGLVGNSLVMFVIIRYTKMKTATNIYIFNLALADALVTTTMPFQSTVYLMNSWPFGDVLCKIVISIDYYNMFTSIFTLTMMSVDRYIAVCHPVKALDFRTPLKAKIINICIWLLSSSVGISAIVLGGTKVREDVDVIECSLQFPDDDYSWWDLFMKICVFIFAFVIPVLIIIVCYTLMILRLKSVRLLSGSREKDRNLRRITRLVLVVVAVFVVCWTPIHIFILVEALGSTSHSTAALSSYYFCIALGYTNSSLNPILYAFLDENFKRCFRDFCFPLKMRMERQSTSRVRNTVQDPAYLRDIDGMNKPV
T3 sequence (P41595 whole entry): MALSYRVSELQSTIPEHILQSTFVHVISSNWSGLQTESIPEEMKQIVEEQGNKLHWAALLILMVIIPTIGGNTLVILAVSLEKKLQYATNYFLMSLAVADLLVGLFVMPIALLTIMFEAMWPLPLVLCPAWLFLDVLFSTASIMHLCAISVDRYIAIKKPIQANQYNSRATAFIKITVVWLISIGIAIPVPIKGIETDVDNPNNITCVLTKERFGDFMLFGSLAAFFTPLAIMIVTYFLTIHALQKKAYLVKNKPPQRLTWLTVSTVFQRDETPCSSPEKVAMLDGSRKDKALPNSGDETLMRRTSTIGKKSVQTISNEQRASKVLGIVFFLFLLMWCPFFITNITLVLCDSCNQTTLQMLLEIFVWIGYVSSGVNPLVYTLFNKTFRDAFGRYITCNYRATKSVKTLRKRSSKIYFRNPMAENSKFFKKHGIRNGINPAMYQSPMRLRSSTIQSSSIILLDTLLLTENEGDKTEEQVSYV
Chain of Mu-type opioid receptor (P35372 whole entry): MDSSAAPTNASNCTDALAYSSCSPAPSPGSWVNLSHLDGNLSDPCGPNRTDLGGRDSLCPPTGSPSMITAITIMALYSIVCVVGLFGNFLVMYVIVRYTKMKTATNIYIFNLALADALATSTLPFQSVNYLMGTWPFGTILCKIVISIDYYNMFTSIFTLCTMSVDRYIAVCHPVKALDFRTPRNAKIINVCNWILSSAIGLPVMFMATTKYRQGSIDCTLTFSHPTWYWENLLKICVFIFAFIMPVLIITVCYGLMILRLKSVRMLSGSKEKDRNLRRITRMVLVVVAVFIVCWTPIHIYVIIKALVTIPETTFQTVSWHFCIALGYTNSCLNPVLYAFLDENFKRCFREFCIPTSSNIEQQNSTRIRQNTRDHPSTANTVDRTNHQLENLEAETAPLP
Chain of Voltage-dependent L-type calcium channel subunit alpha-1C (P22002 whole entry): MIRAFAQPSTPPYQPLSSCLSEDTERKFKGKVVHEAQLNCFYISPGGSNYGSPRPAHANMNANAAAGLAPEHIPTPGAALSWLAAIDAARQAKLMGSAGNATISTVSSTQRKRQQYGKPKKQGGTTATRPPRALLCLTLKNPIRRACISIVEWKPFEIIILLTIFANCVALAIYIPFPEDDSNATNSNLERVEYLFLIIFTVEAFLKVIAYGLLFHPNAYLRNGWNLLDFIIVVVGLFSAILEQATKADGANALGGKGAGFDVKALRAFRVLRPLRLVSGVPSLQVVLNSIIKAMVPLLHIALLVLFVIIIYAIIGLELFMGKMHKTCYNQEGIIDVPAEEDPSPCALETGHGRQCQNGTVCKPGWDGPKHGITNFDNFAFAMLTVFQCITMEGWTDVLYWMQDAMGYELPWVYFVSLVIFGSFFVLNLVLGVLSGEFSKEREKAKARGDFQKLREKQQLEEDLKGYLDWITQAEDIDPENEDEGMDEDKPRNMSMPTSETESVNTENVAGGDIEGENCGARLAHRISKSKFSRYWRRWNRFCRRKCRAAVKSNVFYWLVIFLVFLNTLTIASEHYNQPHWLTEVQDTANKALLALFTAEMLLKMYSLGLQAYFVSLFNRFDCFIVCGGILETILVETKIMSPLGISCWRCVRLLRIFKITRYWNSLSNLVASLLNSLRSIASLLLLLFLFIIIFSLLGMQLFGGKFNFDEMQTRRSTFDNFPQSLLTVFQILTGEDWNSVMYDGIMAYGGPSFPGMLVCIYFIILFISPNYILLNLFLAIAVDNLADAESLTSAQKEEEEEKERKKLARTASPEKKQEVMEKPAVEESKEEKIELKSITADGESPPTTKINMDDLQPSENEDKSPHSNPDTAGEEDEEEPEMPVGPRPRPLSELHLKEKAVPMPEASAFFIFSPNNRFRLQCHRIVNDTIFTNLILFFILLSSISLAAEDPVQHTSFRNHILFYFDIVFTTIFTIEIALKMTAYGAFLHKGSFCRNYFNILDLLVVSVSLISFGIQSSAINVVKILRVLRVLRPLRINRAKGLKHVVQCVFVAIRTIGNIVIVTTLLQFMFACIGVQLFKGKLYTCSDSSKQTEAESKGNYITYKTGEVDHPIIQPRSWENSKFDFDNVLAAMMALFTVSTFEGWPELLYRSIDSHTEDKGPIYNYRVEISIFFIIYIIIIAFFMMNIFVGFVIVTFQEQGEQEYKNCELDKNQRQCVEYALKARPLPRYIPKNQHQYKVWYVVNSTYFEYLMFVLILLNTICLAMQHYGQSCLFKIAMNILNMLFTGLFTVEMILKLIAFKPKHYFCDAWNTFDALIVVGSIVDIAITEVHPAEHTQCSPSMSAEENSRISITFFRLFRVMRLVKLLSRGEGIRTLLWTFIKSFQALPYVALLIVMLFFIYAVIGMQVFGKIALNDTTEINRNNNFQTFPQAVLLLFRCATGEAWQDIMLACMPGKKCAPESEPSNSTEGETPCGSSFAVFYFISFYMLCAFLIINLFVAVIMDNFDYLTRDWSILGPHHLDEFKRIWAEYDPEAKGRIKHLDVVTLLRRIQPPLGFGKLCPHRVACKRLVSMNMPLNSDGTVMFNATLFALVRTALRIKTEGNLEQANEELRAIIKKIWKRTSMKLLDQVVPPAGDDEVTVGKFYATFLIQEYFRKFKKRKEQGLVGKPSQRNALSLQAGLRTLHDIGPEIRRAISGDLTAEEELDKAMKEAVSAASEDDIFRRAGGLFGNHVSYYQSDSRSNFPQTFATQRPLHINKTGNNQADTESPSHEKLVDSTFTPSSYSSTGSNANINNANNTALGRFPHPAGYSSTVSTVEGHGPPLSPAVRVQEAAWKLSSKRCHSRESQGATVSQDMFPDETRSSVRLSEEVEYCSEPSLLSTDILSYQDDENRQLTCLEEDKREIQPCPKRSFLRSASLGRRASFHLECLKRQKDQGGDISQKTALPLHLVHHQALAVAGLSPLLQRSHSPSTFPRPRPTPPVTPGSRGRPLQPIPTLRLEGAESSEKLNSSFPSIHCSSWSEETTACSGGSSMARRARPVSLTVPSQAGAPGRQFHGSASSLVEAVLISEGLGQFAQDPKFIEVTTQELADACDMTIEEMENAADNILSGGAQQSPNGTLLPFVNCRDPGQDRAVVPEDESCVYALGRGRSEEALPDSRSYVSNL
Chain of Cannabinoid receptor 1 (P21554 whole entry): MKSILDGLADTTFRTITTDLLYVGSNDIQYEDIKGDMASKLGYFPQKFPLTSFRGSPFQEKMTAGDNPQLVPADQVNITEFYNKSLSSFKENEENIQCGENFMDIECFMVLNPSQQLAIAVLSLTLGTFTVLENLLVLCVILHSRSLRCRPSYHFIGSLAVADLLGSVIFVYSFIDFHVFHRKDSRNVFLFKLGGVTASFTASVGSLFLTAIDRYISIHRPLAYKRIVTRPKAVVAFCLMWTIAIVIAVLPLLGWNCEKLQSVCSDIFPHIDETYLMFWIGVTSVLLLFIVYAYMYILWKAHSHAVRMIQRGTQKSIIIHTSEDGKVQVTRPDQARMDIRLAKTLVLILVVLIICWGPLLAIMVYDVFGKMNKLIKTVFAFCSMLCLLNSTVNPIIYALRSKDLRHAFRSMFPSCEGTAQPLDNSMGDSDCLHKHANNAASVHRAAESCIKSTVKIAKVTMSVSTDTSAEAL

SMILES | AC50 [1] [µM] | AC50 (Endothelin-1 receptor) [µM] | AC50 [2] [µM] | AC50 [3] [µM] | AC50 [4] [µM] | AC50 (Thromboxane A2 receptor) [µM] | AC50 [5] [µM] | AC50 [6] [µM] | AC50 (Prothrombin) [µM] | AC50 [7] [µM] | AC50 (Acetylcholinesterase) [µM] | AC50 (Mu-type opioid receptor) [µM] | AC50 [8] [µM] | AC50 (Cannabinoid receptor 1) [µM]
CCC(C)C(CC)C(N)=O (centres undefined) [VALNOCTAMIDE] | > 30 | > 30 | > 30 | > 30 | > 30 |  |  |  |  |  |  |  |  | 
Cc1cnc(C(=O)NCCc2ccc(S(=O)(=O)NC(=O)NC3CCCCC3)cc2)cn1 [GLIPIZIDE] | > 10 | > 30 | > 30 |  |  | > 30 | > 3 | 14 | > 30 |  |  |  |  | 
CCCN[C@H]1CCc2nc(N)sc2C1 [PRAMIPEXOLE] | > 10 |  | > 30 | > 10 | > 10 |  |  |  |  | > 10 |  |  |  | 
COc1ccc(CN(CCN(C)C)c2ccccn2)cc1 [PYRILAMINE] |  |  |  |  |  | > 30 | > 30 | > 30 | > 30 |  | > 30 | 9.05 | > 30 | 
Cc1cc(C(C)(C)C)cc(C)c1CC1=NCCN1 [XYLOMETAZOLINE] | 20 | > 30 | > 30 | > 30 | 1.16 |  |  | 0.0003 |  | > 30 |  |  |  | 
CCOC(=O)C1=C[C@]2(CC)CCCN3CCc4c(n1c1ccccc41)[C@@H]32 [VINPOCETINE] | > 30 | > 30 | > 30 | > 30 | 13 |  |  |  |  |  |  |  |  | 
C=C1CC[C@H](O)C/C1=C/C=C1\CCC[C@]2(C)[C@@H]([C@H](C)/C=C/[C@H](C)C(C)C)CC[C@@H]12 [ERGOCALCIFEROL] |  |  |  |  |  | > 30 |  |  | > 30 |  | > 30 | > 30 | > 30 | 
O=C(O)c1cn(C2CC2)c2cc(N3CCNCC3)c(F)cc2c1=O [CIPROFLOXACIN] |  | > 30 | > 30 |  |  | > 30 |  |  | > 30 |  |  |  |  | 
C#C[C@]1(OC(C)=O)CC[C@H]2[C@@H]3CCC4=C/C(=N/O)CC[C@@H]4[C@H]3CC[C@@]21CC [NORGESTIMATE] | > 30 | > 30 | > 30 | > 30 | > 30 |  |  |  |  | > 30 |  |  |  | 
C/N=C(\NC)NCc1ccccc1 [BETHANIDINE] | > 30 | > 30 | > 30 |  | > 30 |  |  |  |  |  |  |  |  | 
COc1cc(N)c(Cl)cc1C(=O)NC1CCN(Cc2ccccc2)CC1 [CLEBOPRIDE] | 22 | > 30 | > 30 | > 30 | > 30 |  |  |  |  | > 30 |  |  |  | 
CC(C)(C)NC[C@H](O)COc1cccc2c1CCCC2=O [LEVOBUNOLOL] |  |  |  |  |  | > 30 | > 30 | > 30 | > 30 |  | > 30 | > 30 | > 30 | 
CC(=O)N[C@@H](CS)C(=O)O [ACETYLCYSTEINE] | > 30 | > 30 | > 30 | > 30 | > 30 |  |  |  |  |  |  |  |  | 
O=[N+]([O-])c1ccc(O)c2ncccc12 [NITROXOLINE] | 9.3 |  |  | > 30 | > 30 | > 30 |  |  | > 30 |  | > 10 | > 30 | > 30 | 
COCC1=C(C(=O)O)N2C(=O)[C@@H](NC(=O)/C(=N\OC)c3csc(N)n3)[C@H]2SC1 [CEFPODOXIME] | > 30 | > 30 | > 30 | > 30 | > 30 |  |  |  |  | > 30 |  |  |  | 
CCOC(=O)c1cncn1[C@H](C)c1ccccc1 [ETOMIDATE] | > 10 |  |  |  | > 10 |  |  |  |  | > 10 |  |  |  | > 10
CNCc1ccc(-c2[nH]c3cc(F)cc4c3c2CCNC4=O)cc1 [RUCAPARIB] |  |  | > 30 |  |  |  |  |  |  |  |  |  |  | 
C[C@]12CCC(=O)C(O)=C1CC[C@@H]1[C@@H]2CC[C@]2(C)C(=O)CC[C@@H]12 [FORMESTANE] |  | > 30 | > 30 | > 30 | > 30 |  |  |  |  | > 30 |  |  |  | 
Oc1ccc2c(c1)CC[C@H](c1ccccc1)[C@@H]2c1ccc(OCCN2CCCC2)cc1 [LASOFOXIFENE] | 0.0849 | > 30 | > 3 | > 30 |  |  |  |  |  |  |  |  |  | 
Cc1ccccc1N1CCN(CCc2nnc3n2CCCC3)CC1 [DAPIPRAZOLE] |  |  |  |  |  | > 30 |  |  | > 30 |  | > 30 | > 30 | > 30 | 
C[C@]12CC[C@@H]3c4ccc(O)cc4C[C@@H](CCCCCCCCC[S+]([O-])CCCC(F)(F)C(F)(F)F)[C@H]3[C@@H]1CC[C@@H]2O (some centres undefined) [FULVESTRANT] | > 30 | > 30 | > 30 | > 30 | > 30 |  |  |  |  |  |  |  |  | 
CN(C)CCCNc1c2ccccc2nc2cccc([N+](=O)[O-])c12 [NITRACRINE] | > 30 | > 30 | > 30 | > 30 | > 30 |  |  |  |  | > 30 |  |  |  | 
Clc1ccc2c(N3CCN(CCCN4CCN(c5ccnc6cc(Cl)ccc56)CC4)CC3)ccnc2c1 [PIPERAQUINE] | 17 | > 30 | > 30 | > 30 | > 30 |  |  |  |  | > 30 |  |  |  | 
COC(=O)c1ccc(O)cc1 [METHYLPARABEN] |  |  |  |  |  | > 30 | > 30 | > 30 | > 30 |  | > 30 | > 30 | > 30 | 
CCC(C)C1(CC)C(=O)NC(=O)NC1=O (centres undefined) [BUTABARBITAL] |  | > 30 | > 30 |  | > 30 |  |  |  |  |  |  |  |  | 
Cc1cccc(N2CC(CO)OC2=O)c1 (centres undefined) [TOLOXATONE] | > 30 | > 30 | > 30 | > 30 | > 30 |  |  |  |  | > 30 |  |  |  | 
CC(C(=O)O)c1ccc(CC2CCCC2=O)cc1 (centres undefined) [LOXOPROFEN] | 0.66 | > 30 | > 30 | > 30 | > 30 |  |  |  |  | > 30 |  |  |  | 
CC1(C)S[C@@H]2[C@H](NC(=O)[C@H](N)c3ccccc3)C(=O)N2[C@H]1C(=O)OCOC(=O)[C@@H]1N2C(=O)C[C@H]2S(=O)(=O)C1(C)C [SULTAMICILLIN] | > 30 | > 30 | > 30 |  | > 30 |  |  |  |  | > 30 |  |  |  | 
Cc1c(N(C)CS(=O)(=O)O)c(=O)n(-c2ccccc2)n1C [METAMIZOLE] |  |  |  |  |  | > 30 | > 30 | > 30 | > 30 |  | > 30 | > 30 | > 30 | 
CC(=O)O[C@]1(C(C)=O)CC[C@H]2[C@@H]3C=C(Cl)C4=CC(=O)CC[C@]4(C)[C@H]3CC[C@@]21C [CHLORMADINONE ACETATE] |  |  |  |  |  | > 30 | 18 | > 30 | > 30 |  | > 30 | > 30 | > 30 | 

Source: ChEMBL document CHEMBL5291721, “A preclinical secondary pharmacology resource illuminates target-adverse drug reaction associations of marketed drugs” (Nat Commun, 2023)
